In patent US11697648B2, “Fused pyrimidine pyridinone compounds as JAK inhibitors” (THERAVANCE BIOPHARMA R&D IP, LLC, priority 2019, dated 2023):

Tests used:
[1] = target: JAK1 (Homo sapiens (Human), UniProt P23458); assay: Biochemical JAK1 kinase assay (LanthaScreen)
Outline: (§1)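 GST-JAK + GFP-STAT1 peptide, HEPES pH 7.5/MgCl2/EGTA/Brij-35 buffer; cpd preincubation 1 h RT; ATP start, 1 h RT; stop with 10 mM EDTA + 2 nM Tb-anti-pSTAT1; TR-FRET 520/495. 4-parameter IC50 → pKi (Cheng-Prusoff).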

[2] = target: JAK2 (Homo sapiens (Human), UniProt O60674); assay: Biochemical JAK2 kinase assay (LanthaScreen)
JAK2, sequence (O60674 whole entry): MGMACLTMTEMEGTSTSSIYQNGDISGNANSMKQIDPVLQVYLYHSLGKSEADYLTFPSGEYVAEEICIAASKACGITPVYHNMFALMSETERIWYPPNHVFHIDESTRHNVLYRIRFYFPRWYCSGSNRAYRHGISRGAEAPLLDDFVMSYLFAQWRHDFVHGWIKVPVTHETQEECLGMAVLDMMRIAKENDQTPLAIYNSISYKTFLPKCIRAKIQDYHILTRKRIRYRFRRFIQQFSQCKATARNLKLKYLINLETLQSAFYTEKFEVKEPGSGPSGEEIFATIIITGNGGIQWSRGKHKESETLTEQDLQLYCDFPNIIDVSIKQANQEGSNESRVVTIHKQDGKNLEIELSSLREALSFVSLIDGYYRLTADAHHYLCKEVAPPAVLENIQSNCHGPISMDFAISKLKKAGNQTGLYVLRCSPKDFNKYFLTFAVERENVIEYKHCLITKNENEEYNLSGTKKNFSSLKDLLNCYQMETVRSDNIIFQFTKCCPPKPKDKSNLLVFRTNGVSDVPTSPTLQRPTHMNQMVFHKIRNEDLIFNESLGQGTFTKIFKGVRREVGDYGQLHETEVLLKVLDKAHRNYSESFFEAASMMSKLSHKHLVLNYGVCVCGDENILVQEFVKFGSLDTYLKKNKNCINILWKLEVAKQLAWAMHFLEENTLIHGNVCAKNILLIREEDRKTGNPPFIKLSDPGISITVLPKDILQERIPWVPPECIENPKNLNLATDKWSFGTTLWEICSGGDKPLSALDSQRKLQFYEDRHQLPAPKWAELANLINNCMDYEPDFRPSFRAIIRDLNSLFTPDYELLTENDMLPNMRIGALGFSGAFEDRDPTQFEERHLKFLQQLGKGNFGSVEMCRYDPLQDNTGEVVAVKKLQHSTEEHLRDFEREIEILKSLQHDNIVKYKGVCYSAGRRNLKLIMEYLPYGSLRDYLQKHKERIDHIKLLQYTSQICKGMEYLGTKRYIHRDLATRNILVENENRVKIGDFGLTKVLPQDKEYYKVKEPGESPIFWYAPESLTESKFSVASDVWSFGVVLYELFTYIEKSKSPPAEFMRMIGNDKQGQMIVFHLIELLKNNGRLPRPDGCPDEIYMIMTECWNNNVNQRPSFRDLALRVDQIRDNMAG
Outline: as §1

[3] = target: JAK3 (Homo sapiens (Human), UniProt P52333); assay: Biochemical JAK3 kinase assay (LanthaScreen)
JAK3, sequence (P52333 whole entry): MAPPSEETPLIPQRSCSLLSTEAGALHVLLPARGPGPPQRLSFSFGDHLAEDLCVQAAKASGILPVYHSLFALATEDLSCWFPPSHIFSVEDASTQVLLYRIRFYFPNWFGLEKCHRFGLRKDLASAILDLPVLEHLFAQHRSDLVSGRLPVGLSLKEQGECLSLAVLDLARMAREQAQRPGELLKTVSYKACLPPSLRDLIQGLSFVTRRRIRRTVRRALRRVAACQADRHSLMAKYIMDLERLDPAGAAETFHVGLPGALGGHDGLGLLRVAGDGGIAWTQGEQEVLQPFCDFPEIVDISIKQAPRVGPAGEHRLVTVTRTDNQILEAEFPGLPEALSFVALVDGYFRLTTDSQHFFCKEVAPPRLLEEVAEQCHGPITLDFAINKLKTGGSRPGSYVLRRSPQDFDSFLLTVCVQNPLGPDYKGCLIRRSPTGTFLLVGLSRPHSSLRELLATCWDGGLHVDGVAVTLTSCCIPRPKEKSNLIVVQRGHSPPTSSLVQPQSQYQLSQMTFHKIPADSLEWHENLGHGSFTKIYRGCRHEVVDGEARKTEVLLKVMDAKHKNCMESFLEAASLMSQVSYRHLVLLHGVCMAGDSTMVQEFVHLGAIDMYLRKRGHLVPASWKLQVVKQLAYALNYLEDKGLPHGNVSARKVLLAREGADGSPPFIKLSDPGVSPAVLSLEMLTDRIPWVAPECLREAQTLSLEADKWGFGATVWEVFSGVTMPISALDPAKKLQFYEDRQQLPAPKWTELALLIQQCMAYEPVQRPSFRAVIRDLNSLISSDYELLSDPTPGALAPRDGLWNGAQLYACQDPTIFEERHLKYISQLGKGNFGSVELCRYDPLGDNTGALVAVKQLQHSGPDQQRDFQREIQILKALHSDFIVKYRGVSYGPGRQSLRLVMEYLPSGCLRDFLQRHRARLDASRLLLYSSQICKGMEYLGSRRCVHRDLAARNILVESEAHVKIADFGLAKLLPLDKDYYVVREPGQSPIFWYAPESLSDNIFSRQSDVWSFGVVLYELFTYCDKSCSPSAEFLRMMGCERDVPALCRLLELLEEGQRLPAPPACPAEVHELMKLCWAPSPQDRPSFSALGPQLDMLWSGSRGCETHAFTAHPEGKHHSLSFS
Outline: as §1

[4] = target: Tyk2 (Homo sapiens (Human), UniProt P29597); assay: Biochemical Tyk2 kinase assay (LanthaScreen)
Tyk2, sequence (P29597 whole entry): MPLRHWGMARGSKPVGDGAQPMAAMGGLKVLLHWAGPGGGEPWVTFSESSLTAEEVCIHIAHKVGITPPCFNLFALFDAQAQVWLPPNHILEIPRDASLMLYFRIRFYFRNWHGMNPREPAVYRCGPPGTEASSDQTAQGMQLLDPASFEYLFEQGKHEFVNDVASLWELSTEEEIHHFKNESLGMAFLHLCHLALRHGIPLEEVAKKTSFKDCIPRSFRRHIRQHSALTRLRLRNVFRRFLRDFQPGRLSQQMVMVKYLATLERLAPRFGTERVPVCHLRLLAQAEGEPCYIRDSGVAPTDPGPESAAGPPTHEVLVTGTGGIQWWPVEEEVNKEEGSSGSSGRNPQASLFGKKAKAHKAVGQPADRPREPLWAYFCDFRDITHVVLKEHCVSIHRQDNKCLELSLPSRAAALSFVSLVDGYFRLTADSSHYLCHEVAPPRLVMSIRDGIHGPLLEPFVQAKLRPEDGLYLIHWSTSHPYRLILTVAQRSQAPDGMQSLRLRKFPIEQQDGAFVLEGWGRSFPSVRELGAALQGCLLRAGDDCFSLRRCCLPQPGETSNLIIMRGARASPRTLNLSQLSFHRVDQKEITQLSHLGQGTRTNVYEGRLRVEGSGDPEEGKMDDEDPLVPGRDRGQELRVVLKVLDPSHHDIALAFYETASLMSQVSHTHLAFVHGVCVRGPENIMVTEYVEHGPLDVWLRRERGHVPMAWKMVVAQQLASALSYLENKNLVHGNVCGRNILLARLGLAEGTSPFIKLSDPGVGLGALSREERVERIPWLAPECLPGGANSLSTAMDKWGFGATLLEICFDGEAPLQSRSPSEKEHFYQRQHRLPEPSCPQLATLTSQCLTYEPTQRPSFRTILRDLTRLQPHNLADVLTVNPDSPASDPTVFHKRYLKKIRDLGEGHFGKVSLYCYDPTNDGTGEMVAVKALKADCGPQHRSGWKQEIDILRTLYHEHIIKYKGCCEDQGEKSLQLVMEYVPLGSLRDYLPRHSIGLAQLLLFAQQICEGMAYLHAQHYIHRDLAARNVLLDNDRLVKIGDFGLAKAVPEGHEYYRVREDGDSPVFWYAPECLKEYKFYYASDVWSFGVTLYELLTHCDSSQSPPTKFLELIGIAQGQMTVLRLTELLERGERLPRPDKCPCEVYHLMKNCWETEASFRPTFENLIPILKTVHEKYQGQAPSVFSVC
Outline: as §1

[5] = system: IL-2 stimulated STAT5 phosphorylation in Tall-1 human T cell line (JAK3); assay: Cellular JAK3 potency assay: inhibition of IL-2 stimulated pSTAT5 in Tall-1 T cells; type: cell-based
Outline: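 Tall-1 cells, 45,000 per well, preincubated 1 hour with compound at 37 °C, then stimulated 30 minutes with IL-2 at 300 ng/ml final. pSTAT5 (Tyr694/699) in lysates quantified by AlphaLISA SureFire Ultra. pIC50 derived from inhibition curves, given as mean with SD.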

[6] = selectivity JAK3 over JAK1, difference of pKi
[7] = IL-2 stimulated pSTAT5, Tall-1 T cells
[8] = selectivity, difference of pKi values
[9] = IL-2 stimulated pSTAT5 in Tall-1 T cells

JAK1, sequence (P23458 whole entry): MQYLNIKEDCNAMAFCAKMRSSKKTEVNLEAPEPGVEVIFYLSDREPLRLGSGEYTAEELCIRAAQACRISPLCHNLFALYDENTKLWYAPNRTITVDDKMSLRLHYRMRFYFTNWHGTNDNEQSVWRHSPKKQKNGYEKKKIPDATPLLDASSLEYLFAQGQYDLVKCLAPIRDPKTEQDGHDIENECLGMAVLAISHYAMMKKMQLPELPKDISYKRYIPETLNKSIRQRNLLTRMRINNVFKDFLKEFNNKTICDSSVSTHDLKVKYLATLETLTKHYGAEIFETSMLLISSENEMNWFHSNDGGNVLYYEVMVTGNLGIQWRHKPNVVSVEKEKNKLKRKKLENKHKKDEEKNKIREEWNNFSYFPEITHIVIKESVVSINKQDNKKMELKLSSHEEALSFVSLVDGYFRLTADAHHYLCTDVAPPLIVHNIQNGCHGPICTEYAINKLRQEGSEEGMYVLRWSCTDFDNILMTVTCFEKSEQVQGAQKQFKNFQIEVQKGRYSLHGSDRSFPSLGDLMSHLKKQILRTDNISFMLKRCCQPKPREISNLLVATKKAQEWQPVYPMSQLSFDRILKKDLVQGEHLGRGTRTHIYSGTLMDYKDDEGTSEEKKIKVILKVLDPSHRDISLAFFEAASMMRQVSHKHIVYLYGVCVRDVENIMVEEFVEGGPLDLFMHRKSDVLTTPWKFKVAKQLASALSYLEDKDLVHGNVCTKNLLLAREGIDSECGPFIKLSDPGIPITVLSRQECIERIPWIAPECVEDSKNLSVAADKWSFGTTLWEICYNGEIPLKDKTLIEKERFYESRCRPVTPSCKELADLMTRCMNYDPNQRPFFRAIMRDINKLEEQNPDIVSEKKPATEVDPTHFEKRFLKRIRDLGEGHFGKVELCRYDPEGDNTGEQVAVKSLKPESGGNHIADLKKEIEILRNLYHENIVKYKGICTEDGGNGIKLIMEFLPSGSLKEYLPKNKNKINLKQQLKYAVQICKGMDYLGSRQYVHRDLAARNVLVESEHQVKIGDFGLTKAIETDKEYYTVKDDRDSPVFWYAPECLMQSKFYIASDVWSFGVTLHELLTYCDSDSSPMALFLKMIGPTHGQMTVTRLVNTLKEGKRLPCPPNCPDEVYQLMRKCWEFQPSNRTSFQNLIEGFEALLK

| SMILES | JAK 1 (pKi) [1] | JAK 2 (pKi) [2] | JAK 3 (pKi) [3] | JAK3 (pKi)-JAK1 (pKi) [3, 6] | Tyk 2 (pKi) [4] | Tall-1 (pIC50) [5, 7] | JAK3 (pKi)-JAK1 (pKi) [3, 8] | Tall-1 (pIC50) [5, 9] |
| --- | --- | --- | --- | --- | --- | --- | --- | --- |
| C=CC(=O)N1CC(CCn2c(=O)ccc3cnc(Nc4ccc(N5CCN(CCN6CCCCC6)CC5)cc4)nc32)C1 [Example 113] | E (E represents a pKi value of 7 or below (Ki of 100 nM or above)) | E (E represents a pKi value of 7 or below (Ki of 100 nM or above)) | B (B represents pKi value between 9 and 10 (Ki between 1 nM and 0.1 nM)) | A (A represents a value of 3 or above) | E (E represents a pKi value of 7 or below (Ki of 100 nM or above)) | A (A represents a pIC50 value≥7.5 (IC50≤32 nM)) | – | – |
| C=CC(=O)N1CCN(CCn2c(=O)ccc3cnc(Nc4cnn(Cc5ccccc5)c4)nc32)[C@@H](C)C1 [Example 237] | E (E represents a pKi value of 7 or below (Ki of 100 nM or above)) | E (E represents a pKi value of 7 or below (Ki of 100 nM or above)) | B (B represents pKi value between 9 and 10 (Ki between 1 nM and 0.1 nM)) | – | E (E represents a pKi value of 7 or below (Ki of 100 nM or above)) | – | A (A represents a value of 3 or above) | B (B represents a pC50 value between 6.7 (included) and 7.5 (IC50 between 200 nM and 32 nM)) |
| C=CC(=O)N1CC(CCn2c(=O)ccc3cnc(Nc4cccc(N5CCN(S(=O)(=O)CC#N)CC5)c4)nc32)C1 [Example 128] | E (E represents a pKi value of 7 or below (Ki of 100 nM or above)) | E (E represents a pKi value of 7 or below (Ki of 100 nM or above)) | A (A represents a pKi value≥10 (Ki≤0.1 nM)) | A (A represents a value of 3 or above) | E (E represents a pKi value of 7 or below (Ki of 100 nM or above)) | B (B represents a pC50 value between 6.7 (included) and 7.5 (IC50 between 200 nM and 32 nM)) | – | – |
| C=CC(=O)N1CC(CCn2c(=O)ccc3cnc(Nc4ccc(N5CCN(C(C)=O)CC5)c(F)c4)nc32)C1 [Example 181] | E (E represents a pKi value of 7 or below (Ki of 100 nM or above)) | E (E represents a pKi value of 7 or below (Ki of 100 nM or above)) | B (B represents pKi value between 9 and 10 (Ki between 1 nM and 0.1 nM)) | A (A represents a value of 3 or above) | E (E represents a pKi value of 7 or below (Ki of 100 nM or above)) | B (B represents a pC50 value between 6.7 (included) and 7.5 (IC50 between 200 nM and 32 nM)) | – | – |
| C=CC(=O)N1CCN(CCn2c(=O)ccc3cnc(Nc4cnn(C5CCN(C)CC5)c4)nc32)[C@@H](C)C1 [Example 231] | E (E represents a pKi value of 7 or below (Ki of 100 nM or above)) | E (E represents a pKi value of 7 or below (Ki of 100 nM or above)) | B (B represents pKi value between 9 and 10 (Ki between 1 nM and 0.1 nM)) | A (A represents a value of 3 or above) | E (E represents a pKi value of 7 or below (Ki of 100 nM or above)) | B (B represents a pC50 value between 6.7 (included) and 7.5 (IC50 between 200 nM and 32 nM)) | – | – |
| C=CC(=O)N1CCN(CCn2c(=O)ccc3cnc(Nc4cnn(C)c4)nc32)[C@@H](CCC)C1 [Example 158] | E (E represents a pKi value of 7 or below (Ki of 100 nM or above)) | E (E represents a pKi value of 7 or below (Ki of 100 nM or above)) | B (B represents pKi value between 9 and 10 (Ki between 1 nM and 0.1 nM)) | A (A represents a value of 3 or above) | E (E represents a pKi value of 7 or below (Ki of 100 nM or above)) | C (C represents a pIC50 value between 6 and 6.7 (IC50 between 1 μM and 200 nM)) | – | – |
| C=CC(=O)N1CC(CCn2c(=O)ccc3cnc(Nc4ccc(N(C)CCO)cc4)nc32)C1 [Example 224] | E (E represents a pKi value of 7 or below (Ki of 100 nM or above)) | E (E represents a pKi value of 7 or below (Ki of 100 nM or above)) | B (B represents pKi value between 9 and 10 (Ki between 1 nM and 0.1 nM)) | A (A represents a value of 3 or above) | E (E represents a pKi value of 7 or below (Ki of 100 nM or above)) | B (B represents a pC50 value between 6.7 (included) and 7.5 (IC50 between 200 nM and 32 nM)) | – | – |
| C=CC(=O)N1CC(CCn2c(=O)ccc3cnc(Nc4cccc(CN5CCN(C(=O)OC)CC5)c4)nc32)C1 [Example 111] | E (E represents a pKi value of 7 or below (Ki of 100 nM or above)) | E (E represents a pKi value of 7 or below (Ki of 100 nM or above)) | B (B represents pKi value between 9 and 10 (Ki between 1 nM and 0.1 nM)) | A (A represents a value of 3 or above) | E (E represents a pKi value of 7 or below (Ki of 100 nM or above)) | B (B represents a pC50 value between 6.7 (included) and 7.5 (IC50 between 200 nM and 32 nM)) | – | – |
| C=CC(=O)N1CC(CCn2c(=O)ccc3cnc(Nc4cnn(C(C)(C)COC)c4)nc32)C1 [Example 58] | E (E represents a pKi value of 7 or below (Ki of 100 nM or above)) | E (E represents a pKi value of 7 or below (Ki of 100 nM or above)) | B (B represents pKi value between 9 and 10 (Ki between 1 nM and 0.1 nM)) | A (A represents a value of 3 or above) | E (E represents a pKi value of 7 or below (Ki of 100 nM or above)) | B (B represents a pC50 value between 6.7 (included) and 7.5 (IC50 between 200 nM and 32 nM)) | – | – |
| C=CC(=O)N1CC(CCn2c(=O)ccc3cnc(Nc4cccc(C(C)N5CCN(C(=O)N(C)C)CC5)c4)nc32)C1 (stereo not drawn) [Example 215] | E (E represents a pKi value of 7 or below (Ki of 100 nM or above)) | E (E represents a pKi value of 7 or below (Ki of 100 nM or above)) | B (B represents pKi value between 9 and 10 (Ki between 1 nM and 0.1 nM)) | A (A represents a value of 3 or above) | E (E represents a pKi value of 7 or below (Ki of 100 nM or above)) | B (B represents a pC50 value between 6.7 (included) and 7.5 (IC50 between 200 nM and 32 nM)) | – | – |
| C=CC(=O)N1CC(CCn2c(=O)ccc3cnc(Nc4ccc(N5C[C@@H](C)N(C)[C@@H](C)C5)cc4)nc32)C1 [Example 247] | E (E represents a pKi value of 7 or below (Ki of 100 nM or above)) | E (E represents a pKi value of 7 or below (Ki of 100 nM or above)) | B (B represents pKi value between 9 and 10 (Ki between 1 nM and 0.1 nM)) | – | E (E represents a pKi value of 7 or below (Ki of 100 nM or above)) | – | A (A represents a value of 3 or above) | A (A represents a pIC50 value≥7.5 (IC50≤32 nM)) |
| C=CC(=O)N1CC(CCn2c(=O)ccc3cnc(Nc4ccc(N5CCN(C(C)=O)[C@H](C)C5)cc4)nc32)C1 [Example 169] | E (E represents a pKi value of 7 or below (Ki of 100 nM or above)) | E (E represents a pKi value of 7 or below (Ki of 100 nM or above)) | A (A represents a pKi value≥10 (Ki≤0.1 nM)) | A (A represents a value of 3 or above) | E (E represents a pKi value of 7 or below (Ki of 100 nM or above)) | A (A represents a pIC50 value≥7.5 (IC50≤32 nM)) | – | – |
| C=CC(=O)N1CC(CCn2c(=O)ccc3cnc(Nc4ccc(N5CCN(C(F)(F)F)CC5)cc4)nc32)C1 [Example 177] | E (E represents a pKi value of 7 or below (Ki of 100 nM or above)) | E (E represents a pKi value of 7 or below (Ki of 100 nM or above)) | B (B represents pKi value between 9 and 10 (Ki between 1 nM and 0.1 nM)) | A (A represents a value of 3 or above) | E (E represents a pKi value of 7 or below (Ki of 100 nM or above)) | B (B represents a pC50 value between 6.7 (included) and 7.5 (IC50 between 200 nM and 32 nM)) | – | – |
| C=CC(=O)N1CCN(CCn2c(=O)ccc3cnc(Nc4ccc(N5CCN(C)[C@@H](C)C5)cc4)nc32)[C@@H](C)C1 [Example 251] | E (E represents a pKi value of 7 or below (Ki of 100 nM or above)) | E (E represents a pKi value of 7 or below (Ki of 100 nM or above)) | B (B represents pKi value between 9 and 10 (Ki between 1 nM and 0.1 nM)) | – | E (E represents a pKi value of 7 or below (Ki of 100 nM or above)) | – | A (A represents a value of 3 or above) | B (B represents a pC50 value between 6.7 (included) and 7.5 (IC50 between 200 nM and 32 nM)) |
| C=CC(=O)N1CCN(CCn2c(=O)ccc3cnc(Nc4ccc(N5CCN(C)[C@@H](C)C5)nc4)nc32)[C@@H](C)C1 [Example 252] | E (E represents a pKi value of 7 or below (Ki of 100 nM or above)) | E (E represents a pKi value of 7 or below (Ki of 100 nM or above)) | B (B represents pKi value between 9 and 10 (Ki between 1 nM and 0.1 nM)) | – | E (E represents a pKi value of 7 or below (Ki of 100 nM or above)) | – | A (A represents a value of 3 or above) | B (B represents a pC50 value between 6.7 (included) and 7.5 (IC50 between 200 nM and 32 nM)) |
